Assay results as given in PubChem BioAssay AID1918949 (Molecular Pharmacology Branch, DTP, NCI, 2023).
“And” between values parts separate entries of the source, which are not always exact repeats. Equal entries are not always repeated.

System: K24384-001-R-PDC complex spheroid viability
Experiment: Anticancer human tumor K24384-001-R-PDC patient-derived pancreatic adenocarcinoma cell line growth inhibition
Conditions: for viability, T/C: stronger effect = lower value
From the text: Multicellular complex tumor spheroid response to LSD1 Inhibitor Iadademstat in combination with a variety of drugs and investigational agents in selected tumor cell lines
The current study was undertaken to assess response to LSD1 inhibitors in combination with standard-of-care drugs and investigational agents in solid tumor complex spheroid models as well as in the K-562 leukemia. Complex spheroids include a stromal component modeled by human endothelial cells (HUVEC) and fibroblasts modeled by human mesenchymal stem cells (MSCs). The concentration ranges selected for each drug and investigational agent were based upon clinically achievable concentrations if the clinical Cmax of the agent was known.
Compounds. The drugs and investigational agents used in this study are listed on Table 1. All of the agents used, including staurosporine (NSC755774) and gemcitabine (NSC613327), were obtained from the Developmental Therapeutics Program, NCI. FDA-approved anticancer drugs are available from the NCI at http://dtp.nci.nih.gov/branches/dscb/oncology_drugset_explanation.html. Drugs and investigational agents were >95% pure by proton nuclear magnetic resonance (NMR) and liquid chromatography/mass spectrometry (LC/MS). Stock solutions were prepared at 400x in DMSO, stored at -70 degrees C, and diluted in fresh medium prior to their use. The final concentration of DMSO in cell culture wells never exceeded 0.25% (v/v). The FDA-approved anticancer drug set is available from the Developmental Therapeutics Program at https://dtp.cancer.gov/organization/dscb/obtaining/available_plates.htm. All drugs and investigational agents were tested over a range starting from a high concentration at or near the clinical Cmax and decreasing in half-log increments. If the clinical Cmax for an agent had not been determined, the highest concentration tested was 10 microM.
Cell Lines. The patient-derived cancer cell (PDC) lines: 292921-168-R-J2-PDC, K24384-001-R-PDC, and 521955-158-R2-J5-PDC pancreatic carcinomas, 556581-035-R-J1 ovarian carcinoma, 324938-238-R-J1-PDC, 855422-203-R-J1-PDC and 883617-216-R-J1-PDC urothelial bladder carcinomas, 743489-274-T-PDC renal cell carcinoma, 138582-R-J1 Merkel cell tumor, K60290-347-R-J1 and K57222-313-R-J1-PDC glioblastomas, 653999-131-R-J2-PDC, LG0703-F948-PDC, and 349418-098-R-PDC non-small cell lung carcinomas, 885512-296-R-J2-PDC, 171881-019-R-J1-PDC breast carcinomas and 186277-243-T-J2-PDC and 233499-124-R-J2-PDC colon carcinomas were obtained from the NCI Patient-Derived Models Repository (PDMR, https://pdmr.cancer.gov). The established cell lines NCI/ADR-RES (RRID:CVCL_14520 and OVCAR-5 (RRID:CVCL_1628) ovarian carcinomas, 786-O (RRID:CVCL_1051) and A498 (RRID:CVCL_A498) renal cell carcinoma, NCI-H211 (ATCC, cat. CRL-5824; RRID:CVCL_1529), NCI-H196 (ATCC, cat. CRL-5823, RRID:CVCL_1509), SW 1271 (ATCC, cat. CRL-2177, RRID:CVCL_1716) and NCI-H1876 (ATCC, cat. CRL-5902, RRID:CVCL_1503) small cell lung carcinomas, MDA-MB-231 (RRID:CVCL_0062) and MDA-MB-468 (RRID:CVCL_0419)breast carcinomas (10-12). Pooled donor human umbilical vein endothelial cells (HUVEC, Lonza, cat. CC-2519) and human mesenchymal stem cells (hMSC, Lonza, cat. PT-2501) were purchased from Lonza (Walkersville, MD).
Cell Culture. All cells were maintained in an incubator at 37 degrees C and 5% CO2 with 95% humidity. The PDC lines were cultured according to standard operating procedures established by the NCI PDMR (https://pdmr.cancer.gov). Briefly all PDCs were thawed and cultured in Matrigel-coated flasks prepared with a working solution of 1X Ham's F-12 nutrient mix, without supplementation (Invitrogen, Waltham, MA, cat. 11765054), 100 U/mL penicillin-streptomycin (Invitrogen, cat. 15140122), and 2.5% Matrigel (Corning Inc., Corning, NY, cat. 354248) for the first three passages. […]

[1] = curve of first compound, second compound 0.1 µM
[2] = curve of first compound, second compound 0.316 µM
[3] = curve of first compound, second compound 1 µM
[4] = curve of first compound, second compound 3.16 µM
[5] = curve of first compound, second compound 10 µM
[6] = second compound 0.1 µM, first compound 0.00316 µM
[7] = second compound 0.1 µM, first compound 0.01 µM
[8] = second compound 0.1 µM, first compound 0.0316 µM
[9] = second compound 0.1 µM, first compound 0.1 µM
[10] = second compound 0.1 µM, first compound 0.316 µM
[11] = second compound 0.1 µM, first compound 1 µM
[12] = second compound 0.316 µM, first compound 0.00316 µM
[13] = second compound 0.316 µM, first compound 0.01 µM
[14] = second compound 0.316 µM, first compound 0.0316 µM
[15] = second compound 0.316 µM, first compound 0.1 µM
[16] = second compound 0.316 µM, first compound 0.316 µM
[17] = second compound 0.316 µM, first compound 1 µM
[18] = second compound 1 µM, first compound 0.00316 µM
[19] = second compound 1 µM, first compound 0.01 µM
[20] = second compound 1 µM, first compound 0.0316 µM
[21] = second compound 1 µM, first compound 0.1 µM
[22] = second compound 1 µM, first compound 0.316 µM
[23] = second compound 1 µM, first compound 1 µM
[24] = second compound 3.16 µM, first compound 0.00316 µM
[25] = second compound 3.16 µM, first compound 0.01 µM
[26] = second compound 3.16 µM, first compound 0.0316 µM
[27] = second compound 3.16 µM, first compound 0.1 µM
[28] = second compound 3.16 µM, first compound 0.316 µM
[29] = second compound 3.16 µM, first compound 1 µM
[30] = second compound 10 µM, first compound 0.00316 µM
[31] = second compound 10 µM, first compound 0.01 µM
[32] = second compound 10 µM, first compound 0.0316 µM
[33] = second compound 10 µM, first compound 0.1 µM
[34] = second compound 10 µM, first compound 0.316 µM
[35] = second compound 10 µM, first compound 1 µM
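Also: spheroids exposed to agents for seven days before luminescence viability reading.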
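For viability, T/C in this document: 100% = DMSO vehicle control viability.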

Structure (SMILES) | IC50 [1] [µM] | IC50 [2] [µM] | IC50 [3] [µM] | IC50 [4] [µM] | IC50 [5] [µM] | viability, T/C [6] [%] | viability, T/C [7] [%] | viability, T/C [8] [%] | viability, T/C [9] [%] | viability, T/C [10] [%] | viability, T/C [11] [%] | viability, T/C [12] [%] | viability, T/C [13] [%] | viability, T/C [14] [%] | viability, T/C [15] [%] | viability, T/C [16] [%] | viability, T/C [17] [%] | viability, T/C [18] [%] | viability, T/C [19] [%] | viability, T/C [20] [%] | also measured
COc1cc(Nc2ncc3c(n2)-c2ccc(Cl)cc2C(c2c(F)cccc2OC)=NC3)ccc1C(=O)O + NC1CC1c1ccc(-c2cccc(O)c2)cc1 | > 1 | > 1 | 0.0483 | 0.0341 | 0.0251 | 74.2 | 72.7 | 62.4 | 57.3 | 55.8 | 60.3 | 68 | 63.1 | 51.9 | 47.8 | 45.5 | 58.9 | 61.1 | 62.5 | 52.8 | viability, T/C [21]: 43.7%; viability, T/C [22]: 43.2%; viability, T/C [23]: 48.9%; viability, T/C [24]: 56.6%; viability, T/C [25]: 64%; viability, T/C [26]: 50.4%; viability, T/C [27]: 39.6%; viability, T/C [28]: 42.5%; viability, T/C [29]: 49.8%; viability, T/C [30]: 65.4%; viability, T/C [31]: 62.4%; viability, T/C [32]: 45.7%; viability, T/C [33]: 44.6%; viability, T/C [34]: 42.4%; viability, T/C [35]: 54.7%
CC1COCCN1c1cc(-c2ccnn2C)c2ccnc(-c3ccn[nH]3)c2n1 (configuration not stated) + NC1CC1c1ccc(-c2cccc(O)c2)cc1 | 0.00471 | 0.326 | 0.0163 | 0.0104 | 0.343 | 51.2 | 51.4 | 40.2 | 44.7 | 46.9 | 38 | 56.1 | 46.6 | 51 | 45.1 | 53.5 | 34 | 53 | 59.9 | 40.9 | viability, T/C [21]: 42.9%; viability, T/C [22]: 43.8%; viability, T/C [23]: 35.8%; viability, T/C [24]: 56.5%; viability, T/C [25]: 52.3%; viability, T/C [26]: 43.7%; viability, T/C [27]: 39.7%; viability, T/C [28]: 48.1%; viability, T/C [29]: 37%; viability, T/C [30]: 64.2%; viability, T/C [31]: 60.1%; viability, T/C [32]: 51.1%; viability, T/C [33]: 59%; viability, T/C [34]: 51.8%; viability, T/C [35]: 31.7%
COc1ccc([C@@H](O)c2cc(-c3ncnc4cc(N5CCOCC5)ccc34)c(F)cc2Cl)nn1 |  |  |  |  |  |  |  |  |  |  |  |  |  |  |  |  |  |  |  |  | viability, T/C (compound 0.0316 µM): 102% and 111%; viability, T/C (compound 0.1 µM): 94.1% and 102%; viability, T/C (compound 0.316 µM): 94.3% and 82.1%; viability, T/C (compound 1 µM): 68.3% and 63.3%; viability, T/C (compound 3.16 µM): 39.1% and 44.5%; viability, T/C (compound 10 µM): 15.3% and 16.4%; IC50 (curve of compound): 2.07 µM and 2.11 µM
